Data taken from ChEMBL document CHEMBL1649524, “Resistance selection studies comparing the activity of razupenem (PTZ601) to vancomycin and linezolid against eight methicillin-resistant and two methicillin-susceptible Staphylococcus aureus strains” (2009).

Assays:
Format in all cases: functional
Staphylococcus aureus [1] = experiment: Antimicrobial activity against methicillin-resistant Staphylococcus aureus 525 by macrodilution method
Staphylococcus aureus [2] = experiment: Antimicrobial activity against vancomycin-resistant Staphylococcus aureus 510 measured on day 50 by macrodilution method
Staphylococcus aureus [3] = experiment: Antimicrobial activity against vancomycin-intermediate Staphylococcus aureus 1287 measured on day 40 by macrodilution method
Staphylococcus aureus [4] = experiment: Antimicrobial activity against methicillin-susceptible Staphylococcus aureus 540 after 49 passages by macrodilution method
Staphylococcus aureus [5] = experiment: Antimicrobial activity against methicillin-resistant Staphylococcus aureus 547 measured on day 15 by macrodilution method; details: Staphylococcus aureus, 547, 360 h
Staphylococcus aureus [6] = experiment: Antimicrobial activity against vancomycin-intermediate Staphylococcus aureus 555 measured on day 30 by macrodilution method
Staphylococcus aureus [7] = experiment: Antimicrobial activity against heterogeneous vancomycin-intermediate Staphylococcus aureus 873 measured on day 15 by macrodilution method; details: Staphylococcus aureus, 873, 360 h
Staphylococcus aureus [8] = experiment: Antimicrobial activity against methicillin-resistant Staphylococcus aureus 547 measured on day 25 by macrodilution method; details: Staphylococcus aureus, 547, 600 h
Staphylococcus aureus [9] = experiment: Antimicrobial activity against methicillin-susceptible Staphylococcus aureus 543 measured on day 20 by macrodilution method; details: Staphylococcus aureus, 543, 480 h
Staphylococcus aureus [10] = experiment: Antimicrobial activity against methicillin-susceptible Staphylococcus aureus 540 by macrodilution method
Staphylococcus aureus [11] = experiment: Antimicrobial activity against methicillin-resistant Staphylococcus aureus 547 measured on day 40 by macrodilution method
Staphylococcus aureus [12] = experiment: Antimicrobial activity against heterogeneous vancomycin-intermediate Staphylococcus aureus 873 measured on day 40 by macrodilution method
Staphylococcus aureus [13] = experiment: Antimicrobial activity against vancomycin-resistant Staphylococcus aureus 510 measured on day 15 by macrodilution method; details: Staphylococcus aureus, 510, 360 h
Staphylococcus aureus [14] = experiment: Antimicrobial activity against vancomycin-intermediate Staphylococcus aureus 555 measured on day 5 by macrodilution method; details: Staphylococcus aureus, 555, 120 h
Staphylococcus aureus [15] = experiment: Antimicrobial activity against methicillin-susceptible Staphylococcus aureus 540 measured on day 45 by macrodilution method
Staphylococcus aureus [16] = experiment: Antimicrobial activity against vancomycin-intermediate Staphylococcus aureus 1287 measured on day 50 by macrodilution method
Staphylococcus aureus [17] = experiment: Antimicrobial activity against methicillin-resistant Staphylococcus aureus 525 measured on day 35 by macrodilution method
Staphylococcus aureus [18] = experiment: Antimicrobial activity against methicillin-susceptible Staphylococcus aureus 540 measured on day 20 by macrodilution method; details: Staphylococcus aureus, 540, 480 h
Staphylococcus aureus [19] = experiment: Antimicrobial activity against vancomycin-resistant Staphylococcus aureus 509 after 50 passages by macrodilution method
Staphylococcus aureus [20] = experiment: Antimicrobial activity against heterogeneous vancomycin-intermediate Staphylococcus aureus 168 by macrodilution method
Staphylococcus aureus [21] = experiment: Antimicrobial activity against heterogeneous vancomycin-intermediate Staphylococcus aureus 168 measured on day 45 by macrodilution method
Staphylococcus aureus [22] = experiment: Antimicrobial activity against vancomycin-intermediate Staphylococcus aureus 1287 measured after 10 antibiotic-free subculturing by macrodilution method
Staphylococcus aureus [23] = experiment: Antimicrobial activity against vancomycin-intermediate Staphylococcus aureus 555 measured on day 40 by macrodilution method
Staphylococcus aureus [24] = experiment: Antimicrobial activity against methicillin-resistant Staphylococcus aureus 525 after 28 passages by macrodilution method
Staphylococcus aureus [25] = experiment: Antimicrobial activity against vancomycin-resistant Staphylococcus aureus 509 measured on day 15 by macrodilution method; details: Staphylococcus aureus, 509, 360 h
Staphylococcus aureus [26] = experiment: Antimicrobial activity against vancomycin-intermediate Staphylococcus aureus 555 measured on day 45 by macrodilution method
Staphylococcus aureus [27] = experiment: Antimicrobial activity against methicillin-resistant Staphylococcus aureus 525 measured on day 30 by macrodilution method
Staphylococcus aureus [28] = experiment: Antimicrobial activity against vancomycin-intermediate Staphylococcus aureus 1287 measured on day 5 by macrodilution method; details: Staphylococcus aureus, 1287, 120 h
Staphylococcus aureus [29] = experiment: Antimicrobial activity against vancomycin-resistant Staphylococcus aureus 509 measured on day 25 by macrodilution method; details: Staphylococcus aureus, 509, 600 h
Staphylococcus aureus [30] = experiment: Antimicrobial activity against vancomycin-intermediate Staphylococcus aureus 1287 after 18 passages by macrodilution method
Staphylococcus aureus [31] = experiment: Antimicrobial activity against methicillin-susceptible Staphylococcus aureus 543 measured on day 35 by macrodilution method
Staphylococcus aureus [32] = experiment: Antimicrobial activity against methicillin-susceptible Staphylococcus aureus 543 by macrodilution method
Staphylococcus aureus [33] = experiment: Antimicrobial activity against vancomycin-resistant Staphylococcus aureus 509 measured on day 20 by macrodilution method; details: Staphylococcus aureus, 509, 480 h
Staphylococcus aureus [34] = experiment: Antimicrobial activity against vancomycin-intermediate Staphylococcus aureus 555 measured on day 15 by macrodilution method; details: Staphylococcus aureus, 555, 360 h
Staphylococcus aureus [35] = experiment: Antimicrobial activity against vancomycin-intermediate Staphylococcus aureus 555 measured after 10 antibiotic-free subculturing by macrodilution method
Staphylococcus aureus [36] = experiment: Antimicrobial activity against methicillin-susceptible Staphylococcus aureus 543 measured on day 45 by macrodilution method
Staphylococcus aureus [37] = experiment: Antimicrobial activity against heterogeneous vancomycin-intermediate Staphylococcus aureus 168 measured on day 5 by macrodilution method; details: Staphylococcus aureus, 168, 120 h
Staphylococcus aureus [38] = experiment: Antimicrobial activity against vancomycin-intermediate Staphylococcus aureus 555 measured on day 35 by macrodilution method
Staphylococcus aureus [39] = experiment: Antimicrobial activity against vancomycin-intermediate Staphylococcus aureus 1287 measured on day 20 by macrodilution method; details: Staphylococcus aureus, 1287, 480 h
Staphylococcus aureus [40] = experiment: Antimicrobial activity against methicillin-resistant Staphylococcus aureus 547 after 23 passages by macrodilution method
Staphylococcus aureus [41] = experiment: Antimicrobial activity against heterogeneous vancomycin-intermediate Staphylococcus aureus 168 measured on day 40 by macrodilution method
Staphylococcus aureus [42] = experiment: Antimicrobial activity against methicillin-susceptible Staphylococcus aureus 540 measured on day 35 by macrodilution method
Staphylococcus aureus [43] = experiment: Antimicrobial activity against methicillin-susceptible Staphylococcus aureus 543 measured on day 50 by macrodilution method
Staphylococcus aureus [44] = experiment: Antimicrobial activity against vancomycin-intermediate Staphylococcus aureus 555 measured on day 20 by macrodilution method; details: Staphylococcus aureus, 555, 480 h
Staphylococcus aureus [45] = experiment: Antimicrobial activity against vancomycin-resistant Staphylococcus aureus 510 measured on day 20 by macrodilution method; details: Staphylococcus aureus, 510, 480 h
Staphylococcus aureus [46] = experiment: Antimicrobial activity against vancomycin-intermediate Staphylococcus aureus 555 measured on day 25 by macrodilution method; details: Staphylococcus aureus, 555, 600 h
Staphylococcus aureus [47] = experiment: Antimicrobial activity against methicillin-susceptible Staphylococcus aureus 543 measured on day 25 by macrodilution method; details: Staphylococcus aureus, 543, 600 h
Staphylococcus aureus [48] = experiment: Antimicrobial activity against vancomycin-resistant Staphylococcus aureus 509 measured on day 45 by macrodilution method
Staphylococcus aureus [49] = experiment: Antimicrobial activity against heterogeneous vancomycin-intermediate Staphylococcus aureus 168 after 50 passages by macrodilution method
Staphylococcus aureus [50] = experiment: Antimicrobial activity against vancomycin-resistant Staphylococcus aureus 510 measured on day 35 by macrodilution method
Staphylococcus aureus [51] = experiment: Antimicrobial activity against heterogeneous vancomycin-intermediate Staphylococcus aureus 873 measured on day 25 by macrodilution method; details: Staphylococcus aureus, 873, 600 h

Measured: MIC

C[C@H]1C=C(c2csc(SC3=C(C(=O)O)N4C(=O)[C@H]([C@@H](C)O)[C@H]4[C@H]3C)n2)CN1 [RAZUPENEM]
8 µg/mL: Staphylococcus aureus [6] | Staphylococcus aureus [21] | Staphylococcus aureus [26] | Staphylococcus aureus [27] | Staphylococcus aureus [41] | Staphylococcus aureus [49] | Staphylococcus aureus [51]
0.25 µg/mL: Staphylococcus aureus [22] | Staphylococcus aureus [28]
1 µg/mL: Staphylococcus aureus [1] | Staphylococcus aureus [14]
2 µg/mL: Staphylococcus aureus [3] | Staphylococcus aureus [5] | Staphylococcus aureus [7] | Staphylococcus aureus [13] | Staphylococcus aureus [25] | Staphylococcus aureus [34] | Staphylococcus aureus [35] | Staphylococcus aureus [44] | Staphylococcus aureus [46]
0.03 µg/mL: Staphylococcus aureus [9] | Staphylococcus aureus [18] | Staphylococcus aureus [47]
0.5 µg/mL: Staphylococcus aureus [30] | Staphylococcus aureus [39]
0.125 µg/mL: Staphylococcus aureus [4]
0.016 µg/mL: Staphylococcus aureus [10] | Staphylococcus aureus [32]
0.06 µg/mL: Staphylococcus aureus [15] | Staphylococcus aureus [31] | Staphylococcus aureus [36] | Staphylococcus aureus [42] | Staphylococcus aureus [43]
16 µg/mL: Staphylococcus aureus [11] | Staphylococcus aureus [12] | Staphylococcus aureus [17] | Staphylococcus aureus [24]
4 µg/mL: all other assays above
